This passage reports IC50 and Ki results from patent publication US11731943B2, “Therapeutic compounds, compositions and methods of use thereof” (priority 2016, dated 2023).

For assay [1], the system named is JAK1-dependent STAT6 phosphorylation downstream of IL-13 stimulation in BEAS-2B human bronchial epithelial cells. Briefly: JAK1 pathway assay in BEAS-2B cells (IL-13-pSTAT6, MSD). Format: cell-based. The following applies: Homo sapiens, BEAS-2B. As for the experimental part:
JAK1 Pathway Assay in Cell Lines was carried out as follows:
Inhibitor potency (EC50) was determined in cell-based assays designed to measure JAK1 dependent STAT phosphorylation.
In one assay approach, TF-1 human erythroleukemia cells obtained from the American Type Culture Collection (ATCC; Manassas, Va.) were used to measure JAK1-dependent STAT6 phosphorylation downstream of IL-13 stimulation. Prior to use in the assays, TF-1 cells were starved of GM-CSF overnight in OptiMEM medium (Life Technologies, Grand Island, N.Y.) supplemented with 0.5% charcoal/dextran stripped fetal bovine serum (FBS), 0.1 mM non-essential amino acids (NEAA), and 1 mM sodium pyruvate. The assays were run in 384-well plates in serum-free OptiMEM medium using 300,000 cells per well. In a second assay approach, BEAS-2B human bronchial epithelial cells obtained from ATCC were plated at 100,000 cells per well of a 96-well plate one day prior to the experiment. The BEAS-2B assay was run in complete growth medium (bronchial epithelial basal medium plus bulletkit; Lonza; Basel, Switzerland).
Test compounds were serially diluted 1:2 in DMSO and then diluted 1:50 in medium just before use. Diluted compounds were added to the cells, for a final DMSO concentration of 0.2%, and incubated for 30 min (for the TF-1 assay) or 1 hr (for the BEAS-2B assay) at 37° C. Then, cells were stimulated with human recombinant cytokine at their respective EC90 concentrations, as previously determined for each individual lot. Cells were stimulated with IL-13 (R&D Systems, Minneapolis, Minn.) for 15 min at 37° C. The TF-1 cell reactions were stopped by the direct addition of 10× lysis buffer (Cell Signaling Technologies, Danvers, Mass.), whereas the BEAS-2B cell incubations were halted by the removal of medium and addition of 1× lysis buffer. The resultant samples were frozen in the plates at −80° C. Compound mediated inhibition of STATE phosphorylation was measured in the cell lysates using MesoScale Discovery (MSD) technology (Gaithersburg, Md.).

The target in assay [2] is isolated recombinant JAK1 kinase domain (Homo sapiens (Human), UniProt P23458). Nature of the assay: JAK1 enzyme assay (Caliper LabChip, Ki). Format: biochemical. Summed up:
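Ki derived via Morrison tight-binding model, ATP-competitive correction applied. Read-out: product/total ratio of a 5-carboxyfluorescein-tagged JAK3 peptide separated on Caliper LabChip after phosphorylation by isolated human JAK1 kinase domain (22 °C, 30 min; EDTA quench, 50 mM final).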

Assay [3] concerns the target isolated recombinant JAK2 kinase domain (Homo sapiens (Human), UniProt O60674). Briefly: JAK2 enzyme assay (Caliper LabChip, Ki). Format: biochemical. In short, it runs like this: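 Caliper LabChip readout of phosphorylated product as a fraction of total substrate, a fluorescently N-terminally labelled JAK3-derived peptide. Isolated human JAK kinase domains were incubated 30 min at 22 °C before EDTA quench (50 mM final).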

Where [4] appears, read: BEAS-2B cells, IL-13 stimulation, read-out: IL-13 p-STAT6 BEAS-2B IC50.

Where two headings read alike, the source gives them in different places.

Chain of isolated recombinant JAK1 kinase domain (P23458 875-1153): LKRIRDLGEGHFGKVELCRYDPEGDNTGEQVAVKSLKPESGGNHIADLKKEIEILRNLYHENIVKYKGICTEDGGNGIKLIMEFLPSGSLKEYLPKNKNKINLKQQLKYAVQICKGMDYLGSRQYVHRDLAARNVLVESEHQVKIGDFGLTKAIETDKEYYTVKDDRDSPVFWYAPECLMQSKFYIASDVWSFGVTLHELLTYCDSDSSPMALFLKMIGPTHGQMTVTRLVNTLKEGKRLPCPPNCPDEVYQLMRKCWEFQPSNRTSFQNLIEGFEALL
Chain of isolated recombinant JAK2 kinase domain (O60674 849-1124): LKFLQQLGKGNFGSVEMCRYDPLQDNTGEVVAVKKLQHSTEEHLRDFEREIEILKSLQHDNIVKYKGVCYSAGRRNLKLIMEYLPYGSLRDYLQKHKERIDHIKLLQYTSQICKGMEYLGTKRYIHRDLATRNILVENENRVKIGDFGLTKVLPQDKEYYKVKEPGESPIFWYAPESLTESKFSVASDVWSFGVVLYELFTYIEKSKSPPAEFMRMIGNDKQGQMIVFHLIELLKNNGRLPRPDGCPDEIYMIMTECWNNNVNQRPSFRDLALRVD

One may read the IC50 as the concentration at which inhibition is half-maximal. One may read the Ki as the equilibrium dissociation constant of an inhibitor or competing ligand from its target. For `CCS(=O)(=O)Nc1cccc(CN2CCC(CC#N)(n3cc(C(N)=O)c(NC(=O)C4CC4)n3)CC2)c1` [Example 75], the IC50 in assay [1] (setting [4]) was over 1 µM. Also, the Ki in assay [2] (read-out: JAK1 Ki) came to 0.0027 µM; in assay [3], 0.014 µM.
With `CC(=O)Nc1cccc(CN2CCC(CC#N)(n3cc(C(N)=O)c(NC(=O)C4CC4)n3)CC2)c1` [Example 76], the IC50 in assay [1] (setting [4]) was over 1 µM. Moreover, the Ki in assay [2] (read-out: JAK1 Ki) was 0.0039 µM; in assay [3], 0.0369 µM.
As to `N#CCC1(n2cc(C(N)=O)c(NC(=O)C3CC3)n2)CCN(Cc2ccc(Br)c(F)c2)CC1` [Example 77], in assay [1] (setting [4]), the IC50 stood at 0.227 µM. In addition, the Ki in assay [2] (read-out: JAK1 Ki) amounted to 0.0026 µM; in assay [3], 0.0447 µM.
In the case of `CS(=O)(=O)Nc1cccc(CN2CCC(CC#N)(n3cc(C(N)=O)c(NC(=O)C4CC4)n3)CC2)c1F` [Example 78], in assay [1] (setting [4]), the IC50 is over 1 µM. Besides, the Ki was 0.0029 µM in assay [2] (read-out: JAK1 Ki) and 0.0049 µM in assay [3].
In the case of `CS(=O)(=O)Nc1cc(CN2CCC(CC#N)(n3cc(C(N)=O)c(NC(=O)C4CC4)n3)CC2)ccc1F` [Example 79], the IC50 in assay [1] (setting [4]) is over 1 µM. The results for the Ki in assay [2] (read-out: JAK1 Ki) and in assay [3] were 0.003 µM and 0.0142 µM, respectively.
For `CS(=O)(=O)Nc1cc(F)cc(CN2CCC(CC#N)(n3cc(C(N)=O)c(NC(=O)C4CC4)n3)CC2)c1` [Example 80], in that order: over 1 µM, 0.0012 µM and 0.0036 µM.
Take `CC(=O)Nc1cc(CN2CCC(CC#N)(n3cc(C(N)=O)c(NC(=O)C4CC4)n3)CC2)ccc1Cl` [Example 81]: in assay [1] (setting [4]), the IC50 is over 1 µM. Moreover, the Ki was 0.0044 µM in assay [2] (read-out: JAK1 Ki) and 0.0384 µM in assay [3].
Regarding `Cn1ccc(-c2ccc(CN3CCC(CC#N)(n4cc(C(N)=O)c(NC(=O)C5CC5)n4)CC3)cc2)n1` [Example 82], the IC50 in assay [1] (setting [4]) came to 0.688 µM. Also, the Ki in assay [2] (read-out: JAK1 Ki) turned out to be 0.0049 µM; in assay [3] it was 0.0143 µM.
The matching figures for `N#CCC1(n2cc(C(N)=O)c(NC(=O)C3CC3)n2)CCN(Cc2ccc(-n3cccn3)cc2)CC1` [Example 87]: 0.35 µM, 0.0022 µM and 0.0251 µM.
For `N#CCC1(n2cc(C(N)=O)c(NC(=O)C3CC3)n2)CCN(Cc2ccc(-n3nccn3)cc2)CC1` [Example 89], in that order: 0.119 µM, 0.0007 µM and 0.0068 µM.
`CC(C)S(=O)(=O)Nc1cccc(CN2CCC(CC#N)(n3cc(C(N)=O)c(NC(=O)C4CC4)n3)CC2)c1` [Example 94]: the IC50 in assay [1] (setting [4]) was over 1 µM. For the same compound, the Ki in assay [2] (read-out: JAK1 Ki) turned out to be 0.0041 µM; in assay [3], 0.0218 µM.
With `N#CCC1(n2cc(C(N)=O)c(NC(=O)C3CC3)n2)CCN(Cc2ccc3c(c2)[nH]c2ccccc23)CC1` [Example 95], in assay [1] (setting [4]), the IC50 was 0.275 µM. For the same compound, the Ki in assay [2] (read-out: JAK1 Ki) is 0.0012 µM; in assay [3] it was 0.0063 µM.
As to `COC1CN([C@H]2CC[C@@](CC#N)(n3cc(C(N)=O)c(NC(=O)C4CC4)n3)CC2)C1` [Example 102], the IC50 in assay [1] (setting [4]) is 0.933 µM. Also, the results for the Ki in assay [2] and in assay [3] were 0.0033 µM and 0.0318 µM, respectively.
For the compound `N#CC[C@]1(n2cc(C(N)=O)c(NC(=O)C3CC3)n2)CC[C@H](N2CC3(CCC3)C2)CC1` [Example 107], the IC50 in assay [1] (setting [4]) is over 1 µM. For the same compound, the Ki stood at 0.0033 µM in assay [2] and 0.0431 µM in assay [3].
Regarding `N#CC[C@]1(n2cc(C(N)=O)c(NC(=O)C3CC3)n2)CC[C@H](NCc2ccccc2Cl)CC1` [Example 117], the IC50 in assay [1] (setting [4]) turned out to be 0.611 µM. The results for the Ki in assay [2] and in assay [3] were 0.0037 µM and 0.0547 µM, respectively.
In the case of `N#CC[C@]1(n2cc(C(N)=O)c(NC(=O)C3CC3)n2)CC[C@@H](NCc2ccc(-c3ccccc3)cc2)CC1` [Example 128], in assay [1] (read-out: IL-13 p-STAT6 BEAS-2B IC50, BEAS-2B cells, IL-13 stimulation), the half-inhibitory concentration (IC50) worked out at 0.349 µM. Further, the Ki in assay [2] is 0.0046 µM; in assay [3], 0.0464 µM.
For the compound `CN(CC(F)(F)F)[C@H]1CC[C@](CC#N)(n2cc(C(N)=O)c(NC(=O)C3CC3)n2)CC1` [Example 129], the IC50 in assay [1] (setting [4]) stood at 0.393 µM. Besides, the results for the Ki in assay [2] and in assay [3] were 0.0033 µM and 0.0163 µM, respectively.
For the compound `COC1(C(F)(F)F)CN([C@H]2CC[C@@](CC#N)(n3cc(C(N)=O)c(NC(=O)C4CC4)n3)CC2)C1` [Example 131], the IC50 in assay [1] (setting [4]) was 0.334 µM. Further, the Ki came to 0.0028 µM in assay [2] (read-out: JAK1 Ki) and 0.0187 µM in assay [3].
In the case of `N#CC[C@]1(n2cc(C(N)=O)c(NC(=O)C3CC3)n2)CC[C@@H](N2CC(OCc3ccccc3)(C(F)(F)F)C2)CC1` [Example 133], in assay [1] (setting [4]), the IC50 was determined as 0.162 µM. In addition, the figures for the inhibition constant (Ki) in assay [2] (read-out: JAK1 Ki) and in assay [3] were 0.0025 µM and 0.0156 µM, respectively.
For `CC(C)OC1(C(F)(F)F)CN([C@H]2CC[C@@](CC#N)(n3cc(C(N)=O)c(NC(=O)C4CC4)n3)CC2)C1` [Example 135], in assay [1] (setting [4]), the IC50 stood at 0.17 µM. Moreover, the Ki in assay [2] (read-out: JAK1 Ki) was determined as 0.0024 µM; in assay [3], 0.0243 µM.
Take `N#CC[C@]1(n2cc(C(N)=O)c(NC(=O)C3CC3)n2)CC[C@@H](N2CC(O)(C(F)(F)F)C2)CC1` [Example 137, 1-[1-(cyanomethyl)-4-[3-hydroxy-3-(trifluoromethyl)azetidin-1-yl]cyclohexyl]-3-(cyclopropanecarbonylamino) pyrazole-4-carboxamide]: in assay [1] (setting [4]), the IC50 is over 1 µM. In addition, the Ki in assay [2] (read-out: JAK1 Ki) was found to be 0.0027 µM; in assay [3], 0.0217 µM.
For `N#CCC1(n2cc(C(N)=O)c(NC(=O)C3CC3)n2)CCN(Cc2ccc(-c3cccc(F)c3)c(O)c2)CC1` [Example 139, 1-[4-(cyanomethyl)-1-[[4-(3-fluorophenyl)-3-hydroxy-phenyl]methyl]-4-piperidyl]-3-(cyclopropanecarbonylamino) pyrazole-4-carboxamide], in that order: 0.104 µM, 0.0004 µM and 0.001 µM.
For `N#CCC1(n2cc(C(N)=O)c(NC(=O)C3CC3)n2)CCN(Cc2ccc(-c3ccccc3)c(F)c2)CC1` [Example 140, 1-[4-(cyanomethyl)-1-[(3-fluoro-4-phenyl-phenyl)methyl]-4-piperidyl]-3-(cyclopropanecarbonylamino) pyrazole-4-carboxamide], in that order: 0.049 µM, 0.0006 µM and 0.0044 µM.
The matching figures for `N#CCC1(n2cc(C(N)=O)c(NC(=O)C3CC3)n2)CCN(Cc2ccc(-c3csc(Cl)c3)c(F)c2)CC1` [Example 141, 1-[1-[[4-(5-chloro-3-thienyl)-3-fluoro-phenyl]methyl]-4-(cyanomethyl)-4-piperidyl]-3-(cyclopropanecarbonylamino) pyrazole-4-carboxamide]: 0.062 µM, 0.0008 µM and 0.0034 µM.
For `N#CCC1(n2cc(C(N)=O)c(NC(=O)C3CC3)n2)CCN(Cc2ccc(-c3ccccc3F)cc2)CC1` [Example 142, 1-[4-(cyanomethyl)-1-[[4-(2-fluorophenyl)phenyl]methyl]-4-piperidyl]-3-(cyclopropanecarbonylamino) pyrazole-4-carboxamide], the IC50 in assay [1] (setting [4]) is 0.06 µM. For the same compound, the inhibition constant Ki came out at 0.0017 µM in assay [2] (read-out: JAK1 Ki) and 0.0129 µM in assay [3].
As for `N#CCC1(n2cc(C(N)=O)c(NC(=O)C3CC3)n2)CCN(Cc2ccc(-c3cccc(F)c3)cc2)CC1` [Example 143, 1-[4-(cyanomethyl)-1-[[4-(3-fluorophenyl)phenyl]methyl]-4-piperidyl]-3-(cyclopropanecarbonylamino) pyrazole-4-carboxamide], in assay [1] (setting [4]), the IC50 was found to be 0.049 µM. In addition, the values for the inhibition constant Ki in assay [2] (read-out: JAK1 Ki) and in assay [3] were 0.0007 µM and 0.0055 µM, respectively.
Consider `CN(C)C(=O)c1cccc(-c2ccc(CN3CCC(CC#N)(n4cc(C(N)=O)c(NC(=O)C5CC5)n4)CC3)cc2)c1` [Example 145, 1-[4-(cyanomethyl)-1-[[4-[3-(dimethylcarbamoyl)phenyl]phenyl]methyl]-4-piperidyl]-3-(cyclopropanecarbonylamino) pyrazole-4-carboxamide], for which the IC50 in assay [1] (setting [4]) was over 1 µM. Further, the figures for the Ki in assay [2] (read-out: JAK1 Ki) and in assay [3] were 0.0031 µM and 0.0155 µM, respectively.
The matching figures for `N#CCC1(n2cc(C(N)=O)c(NC(=O)C3CC3)n2)CCN(Cc2ccc(-c3cccc(Cl)c3)cc2)CC1` [Example 146, 1-[1-[[4-(3-chlorophenyl)phenyl]methyl]-4-(cyanomethyl)-4-piperidyl]-3-(cyclopropanecarbonylamino) pyrazole-4-carboxamide]: 0.095 µM, 0.0011 µM and 0.0082 µM.
